The values that follow come from PubChem BioAssay AID256 (DTP/NCI, 2004).

Values joined by “and” are separate entries in the source; they are usually repeats but may differ in a detail not shown here. Equal entries are not always repeated. Inconclusive results and toxic doses are left out.

For the assay, the system named is CD2F1 mice, L1210 leukemia ip, survival T/C. The assay can be described thus: NCI In Vivo Anticancer Drug Screen. Data for tumor model L1210 Leukemia (intraperitoneal) in CD2F1 (CDF1) mice. Conditions: higher = longer survival. In short, it runs like this:
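Implant tumor; dose compound or vehicle; measure endpoint in both groups; report treated divided by control.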

Setting [1] is: endpoint: mean survival time, dose: 25.0 mg/kg/injection, schedule: Q01DX009 (ip), vehicle: saline with Tween-80.
[2] abbreviates: endpoint: mean survival time, dose: 50.0 mg/kg/injection, schedule: Q01DX009 (ip), vehicle: saline with Tween-80.
Setting [3] is: endpoint: mean survival time, dose: 100.0 mg/kg/injection, schedule: Q01DX009 (ip), vehicle: saline with Tween-80.
Setting [4] is: endpoint: mean survival time, dose: 100.0 mg/kg/injection, schedule: Q04DX003 (ip), vehicle: saline with Tween-80.
[5] abbreviates: endpoint: mean survival time, dose: 200.0 mg/kg/injection, schedule: Q04DX003 (ip), vehicle: saline with Tween-80.
Where [6] appears, read: endpoint: mean survival time, dose: 400.0 mg/kg/injection, schedule: Q04DX003 (ip), vehicle: saline with Tween-80.
Setting [7] is: endpoint: mean survival time, dose: 100.0 mg/kg/injection, schedule: Q01DX001 (ip), vehicle: saline with Tween-80.
Where [8] appears, read: endpoint: mean survival time, dose: 400.0 mg/kg/injection, schedule: Q01DX001 (ip), vehicle: saline with Tween-80.
[9] abbreviates: endpoint: mean survival time, dose: 200.0 mg/kg/injection, schedule: Q01DX001 (ip), vehicle: saline with Tween-80.
The mark [10] stands for this setting: endpoint: mean survival time, dose: 200.0 mg/kg/injection, schedule: Q01DX009 (ip), vehicle: saline with Tween-80.

As for `Cn1ccc(=Nc2ccc(NC(=O)c3ccc(N=c4ccn(C)c5ccc([N+](=O)[O-])cc45)cc3[N+](=O)[O-])cc2)cc1`, the T/C by setting is: (endpoint: mean survival time, dose: 12.5 mg/kg/injection, schedule: Q01DX009 (ip), vehicle: saline with Tween-80) 101 % of control; under setting [1], 113 % of control; under setting [2], 119 % of control; under setting [3], 119 % of control; (endpoint: mean survival time, dose: 400.0 mg/kg/injection, schedule: Q01DX009 (ip), vehicle: saline with Tween-80) 95 % of control.

Take `c1ccc2c(-c3cnc(-c4ccc(-c5ncc(-c6cccc7ccccc67)o5)cc4)o3)cccc2c1`: the T/C is 100 % of control (endpoint: mean survival time, dose: 75.0 mg/kg/injection, schedule: Q01DX001 (ip), vehicle: saline); 102 % of control (endpoint: mean survival time, dose: 150.0 mg/kg/injection, schedule: Q01DX001 (ip), vehicle: saline); 97 % of control (endpoint: mean survival time, dose: 300.0 mg/kg/injection, schedule: Q01DX001 (ip), vehicle: saline).

Consider `Cc1ccc(C2(C(=O)O)CC2)cc1`, for which the T/C was 98 % of control under setting [4], 98 % of control under setting [5] and 96 % of control under setting [6].

As for `COC1OC(CO)C(OC(=O)Nc2ccccc2)C(OC(=O)Nc2ccccc2)C1O` (configuration not stated), the T/C reads like this: under setting [7], 87 % of control; under setting [8], 95 % of control.

`O=C(OCc1ccccc1)C(Cl)(Cl)Cl`: the T/C is, setting by setting: under setting [4], 107 % of control; under setting [5], 103 % of control; under setting [6], 96 % of control.

For the compound `CCCCCCCCCC(O)CCCCCC` (configuration not stated), the T/C is, setting by setting: (endpoint: mean survival time, dose: 200.0 mg/kg/injection, schedule: Q04DX003 (ip), vehicle: other) 108 % of control; (endpoint: mean survival time, dose: 400.0 mg/kg/injection, schedule: Q04DX003 (ip), vehicle: other) 96 % of control.

`Cc1cc(C)c(F)[c]([Hg][Br])c1N`: the T/C reads like this: (endpoint: mean survival time, dose: 3.13 mg/kg/injection, schedule: Q01DX009 (ip), vehicle: Klucel (hydroxypropylcellulose) (HPC)) 102 % of control; (endpoint: mean survival time, dose: 6.25 mg/kg/injection, schedule: Q01DX009 (ip), vehicle: Klucel (hydroxypropylcellulose) (HPC)) 113 % of control; (endpoint: mean survival time, dose: 12.5 mg/kg/injection, schedule: Q01DX009 (ip), vehicle: Klucel (hydroxypropylcellulose) (HPC)) 105 % of control.

Take `COC(=O)CCNc1ccccc1`: the T/C is, setting by setting: (endpoint: mean survival time, dose: 100.0 mg/kg/injection, schedule: Q01DX001 (ip), vehicle: Klucel (hydroxypropylcellulose) (HPC)) 101 % of control; under setting [4], 100 % of control; (endpoint: mean survival time, dose: 200.0 mg/kg/injection, schedule: Q01DX001 (ip), vehicle: Klucel (hydroxypropylcellulose) (HPC)) 101 % of control; under setting [5], 96 % of control; (endpoint: mean survival time, dose: 400.0 mg/kg/injection, schedule: Q01DX001 (ip), vehicle: Klucel (hydroxypropylcellulose) (HPC)) 96 % of control; under setting [6], 96 % of control.

As to `CC(=O)c1ccc(N=C2C=CC(=O)O2)cc1`, the T/C under setting [4] was 102 % of control, the T/C under setting [5] was 96 % of control and the T/C under setting [6] was 96 % of control.

On to `CC(/C=N\O)=N\O`, for which the T/C was 97 % of control under setting [7] and 103 % of control under setting [9].

Regarding `O=C1C=CC(=O)N1c1ccc(F)cc1` (tested in a mixture with another compound), the T/C runs as follows: under setting [2], 96 % of control; under setting [3], 91 % of control; under setting [10], 86 % of control.

As for `COC(=O)CC/C=C\Cc1c(OC)c(C)c2c(c1OC=O)C(=O)OC2`, the T/C by setting is: (endpoint: mean survival time, dose: 100.0 mg/kg/injection, schedule: Q04DX002 (ip), vehicle: saline with Tween-80) 108 % of control; (endpoint: mean survival time, dose: 200.0 mg/kg/injection, schedule: Q04DX002 (ip), vehicle: saline with Tween-80) 108 % of control; (endpoint: median survival time, dose: 100.0 mg/kg/injection, schedule: Q04DX002 (ip), vehicle: saline with Tween-80) 112 % of control; (endpoint: median survival time, dose: 200.0 mg/kg/injection, schedule: Q04DX002 (ip), vehicle: saline with Tween-80) 112 % of control.

For `Cc1ccc(Cl)cc1NC(=O)CCl`, the T/C under setting [1] is 94 % of control; the T/C under setting [2] is 94 % of control; the T/C under setting [3] was 89 % of control and 96 % of control; the T/C under setting [4] was 101 % of control; the T/C under setting [5] is 95 % of control; the T/C under setting [6] is 97 % of control.

Regarding `CCOC(=O)C1CC2(CC(C)C1=O)OCCO2` (configuration not stated), the T/C was 97 % of control (endpoint: mean survival time, dose: 100.0 mg/kg/injection, schedule: Q04DX003 (ip), vehicle: alcohol); 97 % of control (endpoint: mean survival time, dose: 200.0 mg/kg/injection, schedule: Q04DX003 (ip), vehicle: alcohol); 92 % of control (endpoint: mean survival time, dose: 400.0 mg/kg/injection, schedule: Q04DX003 (ip), vehicle: alcohol).

`NC(=O)c1ncc[nH]c1=O`: the T/C is 103 % of control under setting [4] and 91 % of control under setting [5].

In the case of `NC1CCCCC1N.O=C1C=CC(=C(c2ccc(O)cc2)c2ccccc2S(=O)(=O)[O-])C=C1.O=[N+]([O-])[O-].[Pt+4]`, the T/C is, setting by setting: (endpoint: median survival time, dose: 1.56 mg/kg/injection, schedule: Q04DX003 (ip), vehicle: saline) 170 % of control; (endpoint: median survival time, dose: 3.12 mg/kg/injection, schedule: Q04DX003 (ip), vehicle: saline with Tween-80) 361 % of control; (endpoint: median survival time, dose: 3.12 mg/kg/injection, schedule: Q04DX003 (ip), vehicle: saline) 353 % of control; (endpoint: median survival time, dose: 6.25 mg/kg/injection, schedule: Q04DX003 (ip), vehicle: saline with Tween-80) 361 % of control; (endpoint: median survival time, dose: 6.25 mg/kg/injection, schedule: Q04DX003 (ip), vehicle: saline) 243 % of control; (endpoint: median survival time, dose: 12.5 mg/kg/injection, schedule: Q04DX003 (ip), vehicle: saline) 365 % of control.

Consider `COc1ccc(C(C)c2cc3c(cc2OC)OCO3)cc1` (configuration not stated), for which the T/C is, setting by setting: (endpoint: median survival time, dose: 25.0 mg/kg/injection, schedule: Q01DX009 (ip), vehicle: saline with Tween-80) 101 % of control; (endpoint: median survival time, dose: 50.0 mg/kg/injection, schedule: Q01DX009 (ip), vehicle: saline with Tween-80) 107 % of control; (endpoint: median survival time, dose: 100.0 mg/kg/injection, schedule: Q01DX009 (ip), vehicle: saline with Tween-80) 113 % of control; (endpoint: median survival time, dose: 200.0 mg/kg/injection, schedule: Q01DX009 (ip), vehicle: saline with Tween-80) 119 % of control.

Consider `O=C(O)CCc1ccccc1CC(=O)O`, for which the T/C under setting [4] is 98 % of control, the T/C under setting [5] was 98 % of control and the T/C under setting [6] is 97 % of control.

Regarding `CC(O)(c1ccccc1)C(CCl)N1CCCCC1` (configuration not stated), the T/C is 95 % of control under setting [2], 97 % of control under setting [3] and 91 % of control under setting [10].

Regarding `OCn1c2ccccc2c2ccccc21`, the T/C reads like this: under setting [4], 89 % of control; under setting [5], 87 % of control; under setting [6], 87 % of control.

For `NC(=O)COc1ccc(Cl)cc1Cl`, the T/C was 98 % of control under setting [7]; 94 % of control under setting [3]; 94 % of control under setting [9]; 96 % of control under setting [10]; 94 % of control under setting [8].

For `Cc1ccccc1OS(=O)(=O)c1cccc([N+](=O)[O-])c1`, the T/C under setting [4] is 103 % of control, the T/C under setting [5] is 100 % of control and the T/C under setting [6] was 100 % of control.

`CC(=O)Oc1c(Cl)cc(Cl)c(Cl)c1[N+](=O)[O-]`: the T/C is, setting by setting: under setting [7], 93 % of control; under setting [9], 93 % of control.

Regarding `CN=C(N)N(C)C`, the T/C (endpoint: mean survival time, dose: 100.0 mg/kg/injection, schedule: Q01DX001 (ip), vehicle: saline) was 101 % of control; the T/C (endpoint: mean survival time, dose: 200.0 mg/kg/injection, schedule: Q01DX001 (ip), vehicle: saline) is 101 % of control; the T/C (endpoint: mean survival time, dose: 400.0 mg/kg/injection, schedule: Q01DX001 (ip), vehicle: saline) is 95 % of control.

Turning to `c1ccc2c(CN3CC3)c[nH]c2c1`, the T/C reads like this: (endpoint: mean survival time, dose: 22.0 mg/kg/injection, schedule: Q01DX009 (ip), vehicle: other) 101 % of control; (endpoint: mean survival time, dose: 25.0 mg/kg/injection, schedule: Q01DX009 (ip), vehicle: other) 109 % of control; (endpoint: mean survival time, dose: 33.0 mg/kg/injection, schedule: Q01DX009 (ip), vehicle: other) 103 % of control; under setting [3], 114 % of control; under setting [10], 112 % of control.

Turning to `[I][Pt+2][I].[NH-]CC[NH-]`, the T/C is 115 % of control (endpoint: mean survival time, dose: 20.0 mg/kg/injection, schedule: Q04DX003 (ip), vehicle: water); 116 % of control (endpoint: mean survival time, dose: 40.0 mg/kg/injection, schedule: Q04DX003 (ip), vehicle: water); 120 % of control (endpoint: mean survival time, dose: 80.0 mg/kg/injection, schedule: Q04DX003 (ip), vehicle: water); 115 % of control (endpoint: mean survival time, dose: 160.0 mg/kg/injection, schedule: Q04DX003 (ip), vehicle: water); 93 % of control (endpoint: mean survival time, dose: 320.0 mg/kg/injection, schedule: Q04DX003 (ip), vehicle: water).
